# Legend:
# [1] = tested on: Veronica persica; experiment: Example 2: alcohol ethoxylate adjuvants without glyphosate, visual % damage, tracksprayer 300 l/ha; assay type: in vivo
# Source text: (§1) The effect of different types of alcohol ethoxylate (branched—Genapol X-series, and unbranched—Genapol O-series, differing degrees of ethoxylation, see Table 3 below for more details), on unwanted vegetation (broadleaf weed and grass species), in the absence of glyphosate, was investigated and compared to untreated (water only) control weeds.
# (§2) Troughs (measuring 16 cm by 13 cm by 5 cm) were filled with local field soil. Seeds of Veronica persica, Stellaria media, Trifolium repens and Poa annua were sown 24 days before application of test samples. Plants were grown in the glasshouse at 18 to 20° C. and 60% relative humidity. Application of alcohol ethoxylate test samples was carried out using a tracksprayer, spraying at a rate of 300 l/ha. Plants were kept in glasshouse and visual assessment of the estimated percentage damage to the plant was carried out 1, 7, and 14 days from application.
# (§3) Damage was assessed as wilting, desiccation or any other kind of visual injury in comparison to the untreated control (water only).
# [2] = tested on: Stellaria media; experiment: as above; assay type: in vivo
# Source text: as §1, §2, §3
# [3] = tested on: Poa annua; experiment: as above; assay type: in vivo
# Source text: as §1, §2, §3
# [4] = tested on: Trifolium repens; experiment: as above; assay type: in vivo
# Source text: as §1, §2, §3
# [5] = tested on: Stellaria media; experiment: Example 1: adjuvants alone, visual % damage, pots in glasshouse; assay type: in vivo
# Protocol: (§4) The effect of different adjuvants (see Table 1 below) on the growth of broadleaf weed and grass species was investigated and compared to untreated (water only) control weeds.
# (§5) Plates, each with 48 pots measuring 2.7 cm diameter and 5 cm deep, were filled with TKS1 growing media (Floragard, Germany). Seeds of Taraxacum officinale, Stellaria media or Poa annua were sown on the surface (10 to 20 per pot). Plants were grown in glasshouse at a temperature of 18 to 20° C. and at 60% relative humidity.
# (§6) Plants were treated 15 (Stellaria, Poa) and 34 (Taraxacum) days after sowing with 60 μl of a 1.25, 2.5, 5 and 10% (w/v) solution of adjuvant using a hand airbrush.
# (§7) Visual assessment of the percentage damage to the plant was carried out 1 day and 6 days from application.
# as §3
# [6] = tested on: Poa annua; experiment: as above; assay type: in vivo
# Protocol: as §4, §5, §6, §7, §3
# [7] = tested on: Taraxacum officinale; experiment: as above; assay type: in vivo
# Protocol: as §4, §5, §6, §7, §3
# [8] = tested on: treated plants; settings: after treatment, glyphosate per se; cited from earlier work
compound,measurement,setting,value
Oleyl alcohol polyglycol ether with 5 moles of ethoxylation [GenapolO050],mean % damage 1 daa Veronica persica,[1]; adjuvant 1% w/v,0%
same,mean % damage 7 daa Veronica persica,[1]; adjuvant 1% w/v,5%
same,mean % damage 14 daa Veronica persica,[1]; adjuvant 1% w/v,5%
same,mean % damage 1 daa Veronica persica,[1]; adjuvant 1.5% w/v,0%
same,mean % damage 7 daa Veronica persica,[1]; adjuvant 1.5% w/v,10%
same,mean % damage 14 daa Veronica persica,[1]; adjuvant 1.5% w/v,20%
same,mean % damage 1 daa Veronica persica,[1]; adjuvant 2% w/v,0%
same,mean % damage 7 daa Veronica persica,[1]; adjuvant 2% w/v,10%
same,mean % damage 14 daa Veronica persica,[1]; adjuvant 2% w/v,20%
same,mean % damage 1 daa Veronica persica,[1]; adjuvant 2.5% w/v,0%
same,mean % damage 7 daa Veronica persica,[1]; adjuvant 2.5% w/v,20%
same,mean % damage 14 daa Veronica persica,[1]; adjuvant 2.5% w/v,20%
same,mean % damage 1 daa Stellaria media,[2]; adjuvant 1% w/v,0%
same,mean % damage 7 daa Stellaria media,[2]; adjuvant 1% w/v,5%
same,mean % damage 14 daa Stellaria media,[2]; adjuvant 1% w/v,0%
same,mean % damage 1 daa Stellaria media,[2]; adjuvant 1.5% w/v,0%
same,mean % damage 7 daa Stellaria media,[2]; adjuvant 1.5% w/v,5%
same,mean % damage 14 daa Stellaria media,[2]; adjuvant 1.5% w/v,5%
same,mean % damage 1 daa Stellaria media,[2]; adjuvant 2% w/v,0%
same,mean % damage 7 daa Stellaria media,[2]; adjuvant 2% w/v,10%
same,mean % damage 14 daa Stellaria media,[2]; adjuvant 2% w/v,5%
same,mean % damage 1 daa Stellaria media,[2]; adjuvant 2.5% w/v,0%
same,mean % damage 7 daa Stellaria media,[2]; adjuvant 2.5% w/v,10%
same,mean % damage 14 daa Stellaria media,[2]; adjuvant 2.5% w/v,10%
same,mean % damage 1 daa Poa annua,[3]; adjuvant 1% w/v,0%
same,mean % damage 7 daa Poa annua,[3]; adjuvant 1% w/v,10%
same,mean % damage 14 daa Poa annua,[3]; adjuvant 1% w/v,0%
same,mean % damage 1 daa Poa annua,[3]; adjuvant 1.5% w/v,0%
same,mean % damage 7 daa Poa annua,[3]; adjuvant 1.5% w/v,5%
same,mean % damage 14 daa Poa annua,[3]; adjuvant 1.5% w/v,0%
same,mean % damage 1 daa Poa annua,[3]; adjuvant 2% w/v,0%
same,mean % damage 7 daa Poa annua,[3]; adjuvant 2% w/v,5%
same,mean % damage 14 daa Poa annua,[3]; adjuvant 2% w/v,5%
same,mean % damage 1 daa Poa annua,[3]; adjuvant 2.5% w/v,0%
same,mean % damage 7 daa Poa annua,[3]; adjuvant 2.5% w/v,5%
same,mean % damage 14 daa Poa annua,[3]; adjuvant 2.5% w/v,5%
same,mean % damage 1 daa Trifolium repens,[4]; adjuvant 1% w/v,0%
same,mean % damage 7 daa Trifolium repens,[4]; adjuvant 1% w/v,5%
same,mean % damage 14 daa Trifolium repens,[4]; adjuvant 1% w/v,0%
same,mean % damage 1 daa Trifolium repens,[4]; adjuvant 1.5% w/v,0%
same,mean % damage 7 daa Trifolium repens,[4]; adjuvant 1.5% w/v,5%
same,mean % damage 14 daa Trifolium repens,[4]; adjuvant 1.5% w/v,0%
same,mean % damage 1 daa Trifolium repens,[4]; adjuvant 2% w/v,0%
same,mean % damage 7 daa Trifolium repens,[4]; adjuvant 2% w/v,5%
same,mean % damage 14 daa Trifolium repens,[4]; adjuvant 2% w/v,0%
same,mean % damage 1 daa Trifolium repens,[4]; adjuvant 2.5% w/v,0%
same,mean % damage 7 daa Trifolium repens,[4]; adjuvant 2.5% w/v,5%
same,mean % damage 14 daa Trifolium repens,[4]; adjuvant 2.5% w/v,0%
same,avg % damage 1 DAA Stellaria media,[5]; adjuvant 1.25% w/v,0%
same,avg % damage 6 DAA Stellaria media,[5]; adjuvant 1.25% w/v,0%
same,avg % damage 1 DAA Stellaria media,[5]; adjuvant 2.5% w/v,10%
same,avg % damage 6 DAA Stellaria media,[5]; adjuvant 2.5% w/v,15%
same,avg % damage 1 DAA Stellaria media,[5]; adjuvant 5% w/v,15%
same,avg % damage 6 DAA Stellaria media,[5]; adjuvant 5% w/v,25%
same,avg % damage 1 DAA Stellaria media,[5]; adjuvant 10% w/v,30%
same,avg % damage 6 DAA Stellaria media,[5]; adjuvant 10% w/v,25%
same,avg % damage 1 DAA Poa annua,[6]; adjuvant 1.25% w/v,0%
same,avg % damage 6 DAA Poa annua,[6]; adjuvant 1.25% w/v,5%
same,avg % damage 1 DAA Poa annua,[6]; adjuvant 2.5% w/v,0%
same,avg % damage 6 DAA Poa annua,[6]; adjuvant 2.5% w/v,5%
same,avg % damage 1 DAA Poa annua,[6]; adjuvant 5% w/v,0%
same,avg % damage 6 DAA Poa annua,[6]; adjuvant 5% w/v,10%
same,avg % damage 1 DAA Poa annua,[6]; adjuvant 10% w/v,0%
same,avg % damage 6 DAA Poa annua,[6]; adjuvant 10% w/v,10%
same,avg % damage 1 DAA Taraxacum officinale,[7]; adjuvant 1.25% w/v,10%
same,avg % damage 6 DAA Taraxacum officinale,[7]; adjuvant 1.25% w/v,0%
same,avg % damage 1 DAA Taraxacum officinale,[7]; adjuvant 2.5% w/v,10%
same,avg % damage 6 DAA Taraxacum officinale,[7]; adjuvant 2.5% w/v,3%
same,avg % damage 1 DAA Taraxacum officinale,[7]; adjuvant 5% w/v,10%
same,avg % damage 6 DAA Taraxacum officinale,[7]; adjuvant 5% w/v,20%
same,avg % damage 1 DAA Taraxacum officinale,[7]; adjuvant 10% w/v,10%
same,avg % damage 6 DAA Taraxacum officinale,[7]; adjuvant 10% w/v,0%
"O=C(O)CNCP(=O)(O)O [glyphosate, N-(phosphonomethyl)glycine]",time until visual symptoms of phytotoxicity appear,[8],7 to 10 days
